Consider 3 compounds from patent US20050043363A1, “Efficient microbial preparation of capravirine metabolites M4 and M5” (AGOURON PHARMACEUTICALS, INC., priority 2003, published 2005).

Usually CC50 stands for the concentration giving 50% cytotoxicity. Read a high CC50 as better tolerance by the cells. By EC50 is commonly meant the concentration giving half of the maximal effect. The term EC90 denotes the concentration at which the effect reaches the 90% level.

The nature of data set [1]: Cytotoxicity determined measuring XTT dye reduction. As to conditions: compound-treated cells, 50% cytotoxicity concentration, uninfected cells. Format: cell-based. The protocol: The term “CC50”, as used herein, means the 50% cytotoxicity concentration, which is calculated as the concentration of compound that decreases the viability of uninfected, compound-treated cells to 50% of that of uninfected, compound-free cells.
(Tetrazolium dyes change colour on reduction, which living cells bring about.)

The next data set deals with HIV. The data set is described as follows: Antiviral activity determined measuring XTT dye reduction. As to conditions: for EC50 / EC90: Human immunodeficiency virus 1, antiviral activity, XTT dye reduction, mean of 2-4 experiments (M4, M5) or 9 experiments (CPV). Format: cell-based. The text has this:
The term “EC50”, as used herein, means the statistically derived concentration of a toxicant that can be expected to cause a defined non-lethal effect in 50% of a given population of organisms under defined conditions.
The term “EC90”, as used herein, means the statistically derived concentration of a toxicant that can be expected to cause a defined non-lethal effect in 90% of a given population of organisms under defined conditions.

`CC(C)c1nc(COC(N)=O)n(Cc2ccncc2)c1Sc1cc(Cl)cc(Cl)c1` [CPV, 2-carbamoyloxymethyl-5-(3,5-dichlorophenyl)thio-4-isopropyl-1-(4-pyridyl)methyl-1H-imidazole, reference compound] displayed a CC50 in data set [1] of 69000 nM. In the data set with HIV, the “TI (Therapeutic index = CC50/EC50)” value was 45,667, a half-maximal response (EC50) required 1.5 nM and the EC90 was found to be 3.2 nM.
Consider `CC(C)(O)c1nc(COC(N)=O)n(Cc2ccncc2)c1Sc1cc(Cl)cc(Cl)c1` [M4], for which the CC50 in data set [1] was greater than 320000 nM. In the data set with HIV, the “TI (Therapeutic index = CC50/EC50)” value is on record as >6,737; the midpoint of the response, the EC50, lay at 48 nM; it took 110 nM to reach the 90% level (EC90).
In the case of `CC(CO)c1nc(COC(N)=O)n(Cc2ccncc2)c1Sc1cc(Cl)cc(Cl)c1` (stereo not drawn) [M5], in data set [1], the CC50 was greater than 320000 nM. Also, in the data set on HIV, the “TI (Therapeutic index = CC50/EC50)” value is given as >6,882, the EC50 was determined as 47 nM and the EC90 amounted to 110 nM.
